# According to patent US11975003B2, “Methods and compositions for treatment of Zika virus infection” (priority 2016, dated 2024):
# Like-named read-outs stand apart in the source and are kept apart here.
# Legend:
# Zika virus PRVABC-59 = details: for plasma viremia: n=4; for samples with Zika virus below the limit of quantification: FIG. 15D
# [1] = tested on: Zika virus KF993678 (Thai isolate); experiment: Non-human primate Zika virus model, heterologous challenge day 70 (Example 6); format: in vivo, Indian rhesus macaques; details: Groups 1 and 2, no additional dosing
# [2] = tested on: Zika virus Puerto Rico PRVABC59; experiment: Virus yield reduction (VYR) assay; format: cell-based; details: Puerto Rico PRVABC59
# Method: (§1) The compounds were administered at a range of concentrations up to 100 μg/ml. Compounds were prepared in MEM just prior to testing. Inhibition of virus replication was determined by microscopic examination of the infected cells for cytopathic effect, increase of neutral red (NR) dye uptake (colorimetric determination), and virus yield reduction. Uninfected cells treated with a compound were assayed as above for cytotoxicity control. The EC50, EC90 and SI (selectivity index) values were determined in Vero76, Huh7 and RD cells as analyzed by the neutral red uptake dye assay and virus yield reduction assays. The results are presented from 3 or more independent experiments (standard deviations not shown. Three Zika virus strains were used in this in vitro study, Malaysia strain P 6-740, Uganda strain MR-766 and Puerto Rico strain PRVABC-59. Cells were maintained under standard conditions.
# Zika virus Uganda MR 766 [3] = experiment: Virus yield reduction (VYR) assay; format: cell-based
# Method: as §1
# [4] = tested on: Zika virus Malaysia P 6-740; experiment: Virus yield reduction (VYR) assay; format: cell-based
# Method: as §1
# [5] = Phase 1 study of intramuscular injection in healthy human subjects (Example 8); format: in vivo; details: human, in vivo
# Method: A phase 1 double-blind, placebo-controlled, dose-ranging study was conducted to evaluate the safety, tolerability, and pharmacokinetics of Compound A administered by intramuscular injection (IM) in healthy human subjects. The study was conducted in two parts. In part 1, subjects received a single dose of Compound A at doses from 0.3 mg/kg to 10 mg/kg via IM administration. Additionally, the effect of lidocaine administration (co-administered with Compound A at a dose of 4 mg/kg) on alleviation of pain associated with injection was also evaluated. In part 2, subjects received Compound A for 7 days (q.d.) at doses of 2.5 mg/kg/day, 5 mg/kg/day or 10 mg/kg/day via IM administration. 50 subjects received single doses of Compound A in part 1 (12 subjects received placebo) and 23 subjects received multiple doses of Compound A in part 2 (6 subjects received placebo). All planned cohorts were completed.
# Eligible subjects were adults of either sex ages 18 to 50. […]
# The plasma concentration time profile of Compound A was determined for each subject in part 2 (results expressed as ng/ml Compound A). Blood samples were taken on Day 1 prior to administration of the first dose and at 1, 2, 3, 4, 6, 8, 10, 12, 16 and 24 hours after administration of the first dose of Compound A and on Day 7 prior to administration of the last dose of Compound A and at 1, 2, 3, 4, 6, 8, 10, 12, 16, 24, 36, 48, 72 and 96 hours after administration of the last dose of Compound A. Plasma samples were obtained from the blood samples and the concentration of Compound A determined.
# [6] = tested on: Zika virus Puerto Rico PRVABC59; experiment: CPE reduction assay (neutral red uptake); format: cell-based; details: Puerto Rico PRVABC59
# Method: as §1
# Zika virus Uganda MR 766 [7] = experiment: CPE reduction assay (neutral red uptake); format: cell-based
# Method: as §1
# [8] = tested on: Zika virus Malaysia P 6-740; experiment: CPE reduction assay (neutral red uptake); format: cell-based
# Method: as §1
structure (smiles),measurement,setting,value
Cl.Nc1ncnc2c([C@@H]3N[C@H](CO)[C@@H](O)[C@H]3O)c[nH]c12 [Compound A],plasma viremia,"Zika virus PRVABC-59; Group 1: 200 mg/kg day 0, 25 mg/kg b.i.d. days 1-9, IM",did not develop detectable viremia
same,plasma viremia,"Zika virus PRVABC-59; Group 2: 150 mg/kg day 0, 19 mg/kg b.i.d. days 1-9, IM",only one animal from this group showing slight viremia
same,plasma viremia,"Zika virus PRVABC-59; Group 3: 100 mg/kg day 0, 13 mg/kg b.i.d. days 1-9, IM",only two animals from this group showing slight viremia
same,plasma viremia,"Zika virus PRVABC-59; Group 4: 50 mg/kg day 0, 6 mg/kg b.i.d. days 1-9, IM",viremic between days 4 to 7 post-infection
same,tolerability,"Zika virus PRVABC-59; IM, Groups 1 to 4",well-tolerated
same,samples with Zika virus below the limit of quantification,Zika virus PRVABC-59; total dose 492 mg/kg (Group 2),3 out of 4
same,samples with Zika virus below the limit of quantification,Zika virus PRVABC-59; total dose 650 mg/kg (group 1),4 out of 4
same,maximum Zika virus titers vs control,"Zika virus PRVABC-59; total doses greater than 334 mg/kg (Groups 1 to 3), p <0.0001",decreased dramatically
same,viral RNA in serum after heterologous challenge,[1]; FIG. 14A,minimal viral RNA
same,viral RNA in CSF after heterologous challenge,[1]; FIG. 14B,minimal viral RNA
same,VYR assay EC90,[2]; Huh-7 cells,6.7 ± 1.2 µg/mL
same,VYR assay EC90,[2]; RD cells,10.0 ± 2.2 µg/mL
same,VYR assay EC90,"[2]; Vero76 cells, virus harvested 5 dpi, 1 log10 CCID50 reduction",18.2 ± 2.7 µg/mL
same,VYR assay EC90,Zika virus Uganda MR 766 [3]; Huh-7 cells,6.4 µg/mL
same,VYR assay EC90,Zika virus Uganda MR 766 [3]; RD cells,5.4 ± 1.1 µg/mL
same,VYR assay EC90,Zika virus Uganda MR 766 [3]; Vero76 cells,8.7 µg/mL
same,VYR assay EC90,[4]; Huh-7 cells,4.9 ± 0.9 µg/mL
same,VYR assay EC90,[4]; Vero76 cells,13.8 ± 3.7 µg/mL
same,clinically significant laboratory abnormalities,[5],no clinically significant laboratory abnormalities occurred
same,exposure vs dose,[5],dose-proportional and linear with increasing dose
same,plasma PK profile on co-administration of lidocaine,[5]; 4 mg/kg,without altering the plasma PK profile
same,CPE red. assay EC50,[6]; Huh-7 cells,4.7 ± 0.6 µg/mL
same,CPE red. assay EC50,[6]; RD cells,4.7 ± 2.2 µg/mL
same,CPE red. assay EC50,[6]; Vero76 cells,3.8 ± 2.5 µg/mL
same,CPE red. assay EC50,Zika virus Uganda MR 766 [7]; Huh-7 cells,5.7 ± 0.9 µg/mL
same,CPE red. assay EC50,Zika virus Uganda MR 766 [7]; RD cells,4.4 ± 1.3 µg/mL
same,CPE red. assay EC50,Zika virus Uganda MR 766 [7]; Vero76 cells,11.7 ± 4.7 µg/mL
same,CPE red. assay EC50,[8]; Huh-7 cells,5.5 ± 0.1 µg/mL
same,CPE red. assay EC50,[8]; Vero76 cells,11.5 ± 4.4 µg/mL
